Measured values from patent US7388014B2, “Quinazoline derivatives and therapeutic use thereof” (Rexahn Pharmaceuticals, Inc., priority 2004, dated 2008).

Legend:
A549 = assay: Cell growth inhibition assay (SRB), A549; type: cell-based, Human; conditions: A549 (lung), 96 hours
From the text: (§1) Cancer cells used in this study to determine the effect of quinazoline compounds were obtained from the following sources: Human OVCAR-3 (ovary), MCF-7 (breast, hormone-dependent), Hs 578T (breast), MDA-MB-231 (breast), HeLa (cervix), PC3 (prostate), HepG2 (liver), A549 (lung), Caki-1 (kidney), HT-29 (colon), HCT116 (colon) and PANC-1 (pancreas) from the American Type Culture Collection (ATCC) (Manassas, Va.); U251 (brain) from Riken (Japan); MKN-45 (stomach) from DSMZ (Germany); UMRC2 (kidney) and Lox IMVI (melanoma) from the United States National Cancer Institute (Bethesda, Md.). All cell lines except Hs 578T, MDA-MB-231, HCT116, UMRC2, Caki-1 and PANC-1 were grown in RPMI1640 medium (Invitrogen, Carlsbad, Calif.) supplemented with 10% fetal bovine serum (“FBS”), 1 mM sodium pyruvate, 10 mM HEPES and 100 U/ml penicillin and 100 μg/ml streptomycin (“P/S”). Hs 578T, MDA-MB-231, HCT116, UMRC2, Caki-1 and PANC-1 cells were maintained in Dulbecco's modified Eagle's medium (“DMEM”, Invitrogen) supplemented with 10% FBS, P/S, 10 mM HEPES and 2 mM L-glutamine. All cells were incubated at 37° C. under humidified 5% CO2.
(§2) The growth inhibition of the substituted quinazoline derivative compounds against a variety of human tumor cells was evaluated. The relative importance of particular substituent groups on the compounds was also studied. The substituted quinazoline derivative compounds, prepared as described above, were tested, along with DMSO as a control.
(§3) The growth inhibition assay of various compounds against 15 human tumor cell lines was performed using the Sulforhodamnine B (“SRB”) method (Skehan et al., J. National Cancer Institute, 82: 1107-1112 (1990)). Briefly, exponentially growing tumor cells were seeded into a 96-well plate at a density of 2-3×10^3 cells/well and treated with quinazoline compounds the next day. Triplicate wells were used for each treatment. The cells were. incubated with the various compounds for 96 hours at 37° C. in a humidified 5% CO2 atmosphere. After 96-hour incubation, cells were fixed with 10% trichloroacetic acid (“TCA”), incubated for 1 hour at 4° C., and washed 3 times with tap water. Subsequently cells were stained with 0.4% sulforhodamine B in 1% acetic acid for 30 minutes, washed 4 times with 1% acetic acid, and air-dried again. After 5 minutes agitation in 10 mM Tris solution, the absorbance of each well was measured at 530 nm using Benchmark Plus Microplate reader (Bio-Rad Laboratories, Hercules, Calif.).
(§4) To translate the OD530 values into the number of live cells in each well, the OD530 values were compared to those on standard OD530—versus—cell number curves generated for each cell line. The percent survival was calculated using the formula: % Survival=live cell number [test]/live cell number [control]×100
(§5) The IC50 values were calculated by non-linear regression analysis.

HepG2 = assay: Cell growth inhibition assay (SRB), HepG2; type: cell-based, Human; conditions: HepG2 (liver), 96 hours, read-out: Inhibition of cell growth (IC50, μM) HepG 2
From the text: as §1, §2, §3, §4, §5

MKN-45 = assay: Cell growth inhibition assay (SRB), MKN-45; type: cell-based, Human; conditions: MKN-45 (stomach), 96 hours
From the text: as §1, §2, §3, §4, §5

PANC-1 = assay: Cell growth inhibition assay (SRB), PANC-1; type: cell-based, Human; conditions: PANC-1 (pancreas), 96 hours
From the text: as §1, §2, §3, §4, §5

HT-29 = assay: Cell growth inhibition assay (SRB), HT-29; type: cell-based, Human; conditions: HT-29 (colon), 96 hours
From the text: as §1, §2, §3, §4, §5

PC3 = assay: Cell growth inhibition assay (SRB), PC3; type: cell-based, Human; conditions: PC3 (prostate), 96 hours
From the text: as §1, §2, §3, §4, §5

U251 = assay: Cell growth inhibition assay (SRB), U251; type: cell-based, Human; conditions: U251 (brain), 96 hours
From the text: as §1, §2, §3, §4, §5

HeLa = assay: Cell growth inhibition assay (SRB), HeLa; type: cell-based, Human; conditions: HeLa (cervix), 96 hours
From the text: as §1, §2, §3, §4, §5

Lox IMVI = assay: Cell growth inhibition assay (SRB), Lox IMVI; type: cell-based, Human; conditions: Lox IMVI (melanoma), 96 hours
From the text: as §1, §2, §3, §4, §5

OVCAR-3 = assay: Cell growth inhibition assay (SRB), OVCAR-3; type: cell-based, Human; conditions: OVCAR-3 (ovary), 96 hours
From the text: as §1, §2, §3, §4, §5

MCF-7 = assay: Cell growth inhibition assay (SRB), MCF-7; type: cell-based, Human; conditions: MCF-7 (breast, hormone-dependent), 96 hours
From the text: as §1, §2, §3, §4, §5

MDA-MB-231 = assay: Cell growth inhibition assay (SRB), MDA-MB-231; type: cell-based, Human; conditions: MDA-MB-231 (breast), 96 hours
From the text: as §1, §2, §3, §4, §5

Hs 578T = assay: Cell growth inhibition assay (SRB), Hs 578T; type: cell-based, Human; conditions: Hs 578T (breast), 96 hours
From the text: as §1, §2, §3, §4, §5

UMRC2 = assay: Cell growth inhibition assay (SRB), UMRC2; type: cell-based, Human; conditions: UMRC2 (kidney), 96 hours
From the text: as §1, §2, §3, §4, §5

Caki-1 = assay: Cell growth inhibition assay (SRB), Caki-1; type: cell-based, Human; conditions: Caki-1 (kidney), 96 hours
From the text: as §1, §2, §3, §4, §5

[1] = system: 15 human tumor cell lines; assay: Cell growth inhibition assay (SRB), summary over the panel of cell lines; type: cell-based; conditions: four of the tested cell lines
From the text: Cancer cells used in this study to determine the effect of quinazoline compounds were obtained from the following sources: Human OVCAR-3 (ovary), MCF-7 (breast, hormone-dependent), Hs 578T (breast), MDA-MB-231 (breast), HeLa (cervix), PC3 (prostate), HepG2 (liver), A549 (lung), Caki-1 (kidney), HT-29 (colon), HCT116 (colon) and PANC-1 (pancreas) from the American Type Culture Collection (ATCC) (Manassas, Va.); U251 (brain) from Riken (Japan); MKN-45 (stomach) from DSMZ (Germany); UMRC2 (kidney) and Lox IMVI (melanoma) from the United States National Cancer Institute (Bethesda, Md.). […]
The growth inhibition of the substituted quinazoline derivative compounds against a variety of human tumor cells was evaluated. […]
The growth inhibition assay of various compounds against 15 human tumor cell lines was performed using the Sulforhodamnine B (“SRB”) method (Skehan et al., J. National Cancer Institute, 82: 1107-1112 (1990)). […] After 5 minutes agitation in 10 mM Tris solution, the absorbance of each well was measured at 530 nm using Benchmark Plus Microplate reader (Bio-Rad Laboratories, Hercules, Calif.). […]
The IC50 values were calculated by non-linear regression analysis. […]

Q: `CC(C)Nc1ncnc2cc3[nH]cnc3cc12` [RX-1834] was tested. Which IC50 (A549) did it give?
A: Its IC50 is 0.66 µM.

Q: What about the IC50 (HepG2) of the same molecule?
A: Its IC50 is 0.18 µM.

Q: And the IC50 (MKN-45)?
A: The IC50 was 0.1 µM.

Q: What about the IC50 (PANC-1) of the same molecule?
A: The IC50 was > 3 µM.

Q: And the IC50 (HT-29)?
A: Its IC50 is 0.24 µM.

Q: What about the IC50 (PC3) of the same molecule?
A: The IC50 was 1.03 µM.

Q: And the IC50 (U251)?
A: The IC50 was 0.13 µM.

Q: What about the IC50 (HeLa) of the same molecule?
A: Its IC50 is 1.06 µM.

Q: What about the IC50 (Lox IMVI) of the same molecule?
A: Its IC50 is 0.67 µM.

Q: What about the IC50 (OVCAR-3) of the same molecule?
A: Its IC50 is 0.48 µM.

Q: And the IC50 (MCF-7)?
A: The IC50 was 0.11 µM.

Q: And the IC50 (MDA-MB-231)?
A: The IC50 was 0.53 µM.

Q: What about the IC50 (Hs 578T) of the same molecule?
A: The IC50 was 0.79 µM.

Q: What about the IC50 (UMRC2) of the same molecule?
A: Its IC50 is 2.24 µM.

Q: What about the IC50 (Caki-1) of the same molecule?
A: Its IC50 is 0.65 µM.

Q: And the IC50 [1]?
A: Its IC50 is < 0.2 µM.
